In US9820990B2, “Methods of treating disorders associated with protein aggregation” (University of Pittsburgh—Of the Commonwealth System of …, priority 2009, dated 2017):
Where a name gives a salt, the structure may show the parent alone. Read-outs that look alike come from different tables or passages of the source.

What was measured:
sGFP::ATZ [1] = experiment: LOPAC library high-content primary screen for sGFP::ATZ accumulation in transgenic animals; type: in vivo, C. elegans; conditions: for Rank-score: 24 h
sGFP::ATZ [2] = experiment: Hit compound characterization: dose-response in the sGFP::ATZ HCS assay; type: in vivo, C. elegans; parameters: key to dose-dependent response: c: Compound demonstrated a dose-dependent response.; Compound failed to demonstrate a dose-dependent response; conditions: for dose-dependent response: retest at 0-100 μM, 24 or 48 hours; for effect on sGFP::ATZ accumulation: dose-response, 0-100 μM
Procedure: Imaging of animals using the ArrayScan VTI: Prior to imaging, worms were anesthetized by adding 30 μl of 0.02 M NaN3 in PBS to each well. Plates were resealed, inverted twice, and incubated for 5 minutes at room temperature. Images were acquired with the ArrayScan VTI HCS Reader fitted with a 2.5× objective and a 0.63× coupler using a 2-channel (TRITC and GFP) assay. Real-time analysis was performed using the SpotDetector BioApplication optimized to quantify fluorescent protein expression in C. elegans. Image acquisition and analysis of a 384-well plate was completed in <45 minutes. The total number of animals in the well was determined by counting the number of red heads (Pmyo-2mRFP) in the TRITC channel. Total spot area or total spot intensity was determined by quantifying the GFP-positive spots in the GFP channel. Total spot area or total spot intensity per animal was determined by dividing the values from the GFP channel by that from the TRITC channel.
Hit compound characterization: Compounds that were identified as potential hits were purchased (if available) and retested for verification. […] Compounds that produced a response in a dose-dependent manner were further tested for a time-dependent response. Compound dose-response curves were performed by dispensing 15 μl of a 4× stock solution into 384-well plates containing 15 μl of assay medium (see above). Thirty-five animals were sorted into each well bringing the volume to ˜60 μl. The final compound concentrations in each well varied from 0-100 μM. Assay plates were incubated in a 22° C. incubator for 24 or 48 hours. Each compound was tested in quadruplicate in at least 2 independent experiments.
Statistical evaluation: Statistical evaluation of data was performed using Prism® (Graphpad Software). The significance of actual and predicted data in FIGS. 12, 14 and 15 was determined using a linear regression analysis and comparing the slope and goodness-of-fit (r2) values. Statistical significance of the spot count, spot area and spot intensity values between N2 (wild-type) and various transgenic lines in FIG. 13 and dose-response in FIG. 17 was determined using an unpaired, one-tailed, Student's t-test.
Compound screen: To test the HCS protocol, a pilot drug screen was performed using the library of pharmacologically active compounds (LOPAC1280™ 1280 compounds). Tight gating parameters for total fluorescence were used to sort 35 young adult Pnhx2sGFP::ATZ animals into wells of 384-well plates containing […] of a LOPAC compound and 0.5% DMSO. Pnhx2sGFP::ATZ animals incubated with 0.5% DMSO served as untreated controls and were placed in the first-two and last-two columns of each plate. In a representative experiment, plate 1 of the LOPAC library was set-up for screening on day 1, and 3 other plates were set-up on the next day. After 24 incubation at 25° C., animals were immobilized by the addition of NaAz and placed in the ArrayScan VTI for automated imaging. To examine for systematic errors, the raw data (total spot area/animal) were depicted as a plate-well scatter plot (FIG. 17A). […] This difference reflects a wider sort-window used to collect animals on day 1 in comparison to that used on day 2. As the average values of the negative controls and that of the sample wells were similar, we combined the control and samples wells for normalization and to identify potential hits using the z-score (FIG. 17B). The ArrayScan VTI reads microtiter plates by rows, alternating from left-to-right, and then right-to-left. For some assays, we noted that the control fluorescence values would drift upwards slightly in rows towards the bottom of the plate. This drift appeared to correlate with an increase in chamber temperature during the scanning period and was minimized by cooling the chamber with a fan or shortening the read times by using 2.5× objective with a 0.6 coupler. Nonetheless, intra-plate variation was controlled for by presenting the data as a B-score (FIG. 17C). […]

[3] = among compounds that decreased ATZ accumulation, based on relative rank-scores
[4] = average of compound rankings by ascending B-score from two independent screens, 50 μM, <110 decreased, >1225 increased sGFP::ATZ inclusions
[5] = among compounds that increased ATZ accumulation, based on relative rank-scores

Compound	Overall rank-order (sGFP::ATZ [1]; [3])	Rank-score (sGFP::ATZ [1]; [4])	further results
NCCc1c[nH]c2ccc(C(N)=O)cc12.O=C(O)/C=C\C(=O)O [5-carboxamidotryptamine maleate]	29	95.5	–
CS(=O)(=O)O.Cc1c(C(=O)c2cccc3ccccc23)c2cccc3c2n1[C@H](CN1CCOCC1)CO3 [(R)-(+)-WIN 55,212-2 mesylate]	–	1231.0	Overall rank-order (sGFP::ATZ [1]; [5]): 14
COc1cc(OC)c(C=C2C(O)=Nc3ccccc32)c(OC)c1 [IC 261]	–	1253.5	Overall rank-order (sGFP::ATZ [1]; [5]): 5
C[C@](N)(Cc1ccc(O)c(O)c1)C(=O)O [L-alpha-methyl DOPA]	18	72.5	–
Cl.Cl.OCCN1CCN(CC/C=C2/c3ccccc3Sc3ccc(C(F)(F)F)cc32)CC1 [cis-(Z)-flupenthixol dihydrochloride]	20	74.0	–
N#CC(C#N)=C(N)/C(C#N)=C/c1ccc(O)cc1 [tyrphostin AG 112]	30	98.0	–
CCN1CCc2nc(N)oc2CC1.Cl.Cl [B-HT 933 dihydrochloride]	32	105.5	dose-dependent response (sGFP::ATZ [2]): B-HT 933 dihydrochloride^d
O=c1[nH]c2cc(Cl)ccc2c(O)c1-c1cccc(Oc2ccccc2)c1 [L-701,324]	12	57.5	–
C[N+]1(C)CCc2cc3c(cc2[C@H]1[C@@H]1OC(=O)c2c1ccc1c2OCO1)OCO3.[Br-] [(−)-bicuculline methbromide, 1(S), 9(R)]	26	89.5	–
5′-3′2,3-dicarboxy-2,3-dimethyl-1,4-epoxycyclohexane [cantharidic acid]	22	79.0	concentration at which an anti-protein aggregate effect was achieved (sGFP::ATZ [2]; C. elegans assay): 100 µM; degradation of aggregated ATZ protein (sGFP::ATZ [2]; Caenorhabditis elegans model system): able to promote degradation of aggregated ATZ protein; dose-dependent response (sGFP::ATZ [2]): cantharidic acid^c
CC(C)(C)c1cc(/C=C(\C#N)C(N)=S)cc(C(C)(C)C)c1O [tyrphostin AG 879]	–	1236.5	Overall rank-order (sGFP::ATZ [1]; [5]): 10; effect on sGFP::ATZ accumulation (sGFP::ATZ [2]): increased; effect on sGFP::ATZ accumulation (sGFP::ATZ [2]; listed as tyrphostatin): increase in sGFP::ATZ accumulation; dose-dependent response (sGFP::ATZ [2]): tyrphostin AG 879^c
CN(C)c1cc2c(Nc3ccc4c(cnn4Cc4ccccc4)c3)ncnc2cn1 [GW2974]	–	1263.0	Overall rank-order (sGFP::ATZ [1]; [5]): 1
CCCC(=O)NCCc1c2n(c3ccc(OC)cc13)Cc1ccccc1-2 [IIK7]	–	1236.5	Overall rank-order (sGFP::ATZ [1]; [5]): 11
CC(=O)c1c(O)c(C)c(O)c(Cc2c(O)c3c(c(C(=O)/C=C/c4ccccc4)c2O)OC(C)(C)C=C3)c1O [rottlerin]	–	1229.5	Overall rank-order (sGFP::ATZ [1]; [5]): 15; dose-dependent response (sGFP::ATZ [2]): rottlerin^c
Cc1cnc(C(=O)NCCc2ccc(S(=O)(=O)NC(=O)NC3CCCCC3)cc2)cn1 [glipizide]	–	1234.0	Overall rank-order (sGFP::ATZ [1]; [5]): 12; dose-dependent response (sGFP::ATZ [2]): glipizide^d
C#C[C@]1(O)CC[C@H]2[C@@H]3CCC4=Cc5nc6nc7ccccc7n6cc5C[C@]4(C)[C@H]3CC[C@@]21C [WIN 62,577]	–	1233.5	Overall rank-order (sGFP::ATZ [1]; [5]): 12
COc1[nH]c2ccc(F)cc2c1C(=O)OCC1CCN(CCNS(C)(=O)=O)CC1.NS(=O)(=O)O [GR 125487 sulfamate salt]	4	24.0	–
NCc1cc(=O)[nH]o1 [muscimol hydrobromide]	5	28.0	–
CN1CCN(CCCN2c3ccccc3Sc3ccc(Cl)cc32)CC1 [prochlorperazine dimaleate]	31	103.5	–

Compound	Overall rank-order (sGFP::ATZ [1]; [3])	Rank-score (sGFP::ATZ [1]; [4])	further results
Cn1ccc2cc3c(cc21)CCN3C(=O)Nc1cccnc1 [SB 206553 hydrochloride]	11	56.0	–
NC(=Nc1ccccc1)NC(=O)c1nc(Cl)c(N)nc1N [phenamil methanesulfonate]	13	57.5	dose-dependent response (sGFP::ATZ [2]): phenamil methanesulfonate^d
Cc1nc(-c2ccc(-c3ccc(C(=O)N4CCc5cc6c(cc54)C4(CCN(C)CC4)CO6)cc3)c(C)c2)no1 [SB 224289 hydrochloride]	–	1255.0	Overall rank-order (sGFP::ATZ [1]; [5]): 3
CN(C)CCC=C1c2ccccc2COc2ccccc21 [doxepin hydrochloride]	–	–	Overall rank-order (sGFP::ATZ [1]): 15; Rank-score (sGFP::ATZ [1]; 50 µM): 61.0; dose-dependent response (sGFP::ATZ [2]): doxepin hydrochloride^d
CCCN(CCC)[C@H]1CCc2c(F)ccc(O)c2C1.Cl [S(−)-UH-301 hydrochloride]	17	65.0	–
CCCCOC(=O)NS(=O)(=O)c1sc(CC(C)C)cc1-c1ccc(Cn2c(CC)nc3c(C)cc(C)nc32)cc1 [L-162,313]	–	1238.0	Overall rank-order (sGFP::ATZ [1]; [5]): 9
COc1ccc(C2CNC(=O)C2)cc1OC1CCCC1 (centres unmarked) [rolipram]	14	58.0	–
L(−)-norepinephrine bitartrate	7	36.5	dose-dependent response (sGFP::ATZ [2]): L(−)-norepinephrine bitartrate^d
CO[C@@]1(NC(=O)CSCC#N)C(=O)N2C(C(=O)O)=C(CSc3nnnn3C)CS[C@@H]21 [cefmetazole sodium]	9	51.0	dose-dependent response (sGFP::ATZ [2]): cefmetazole sodium^d
Clc1ccccc1C(c1ccccc1)(c1ccccc1)n1ccnc1 [clotrimazole]	–	–	Overall rank-order (sGFP::ATZ [1]): 4; Rank-score (sGFP::ATZ [1]; 50 µM): 1255.0
CN[C@@H]1C[C@@H](c2ccc(Cl)c(Cl)c2)c2ccccc21 [indatraline hydrochloride]	28	93.0	–
Cc1c(CC(C)(C)C(=O)O)n(Cc2ccc(Cl)cc2)c2ccc(F)cc12 [L-655,240]	3	10.5	–
Cl.N[C@@H](CCl)C(=O)O [beta-chloro-L-alanine hydrochloride]	16	61.5	–
COc1cccc(C(=O)NCCN2CCN(c3ccc(Cl)cc3)CC2)c1 [N-(2-[4-(4-Chlorophenyl)piperazin-1-yl]ethyl)-3-methoxybenzamide]	8	41.5	–
CC1=C(C(=O)O)N2C(=O)[C@@H](NC(=O)[C@H](N)C3=CCC=CC3)[C@H]2SC1 [cephradine]	27	90.0	–
CC(C)C[C@H]1C(=O)N2CCC[C@H]2[C@]2(O)O[C@](NC(=O)[C@@H]3C=C4c5cccc6[nH]c(Br)c(c56)C[C@H]4N(C)C3)(C(C)C)C(=O)N12.CS(=O)(=O)O [(+)-bromocriptine methanesulfonate]	–	1240.5	Overall rank-order (sGFP::ATZ [1]; [5]): 8
O=C1Nc2ccccc2/C1=C1/Nc2ccccc2/C1=N\O [indirubin-3′-oxime]	25	85.0	–
CCN(CC)C(C)C(=O)N1c2ccccc2Sc2ccccc21.Cl (stereo not drawn) [10-(alpha-diethylaminopropionyl)-phenothiazine hydrochloride]	21	75.5	–
O=S(=O)(c1cccc2cnccc12)N1CCNCC1 [HA-100]	10	52.5	–
